Assays:
[1] = tested on: panel of SCLC cell lines; test: CCK-8 cytotoxicity in a panel of SCLC cell lines (statements on the panel); assay type: cell-based, human; details: 72 h
Method: The expression levels of DRP1 and DHODH in SCLC lines were compared with non-malignant BEAS 2B cells. […] Previous studies have shown that Leflu and its active metabolite Teri regulate mitochondrial morphology (9,10,26). […] In vitro cytotoxicity effect of Teri and Leflu was tested in a panel of SCLC cell lines. Ten SCLC cell lines were treated with increasing concentrations of each drug for 72 h.
Among the drugs approved for SCLC, lurbinectedin is used to treat patients with metastatic SCLC with disease progression. Lurbinectedin (Lur) is an inhibitor of RNA polymerase II, which is commonly hyperactivated in SCLC, resulting in excessive transcription in tumor cells (44). In this study, we tested the combination of Lur with Teri to see if it may reduce the viability of SCLC cells.

[2] = tested on: H345 cells; test: CCK-8 cytotoxicity assay, 72 h; assay type: cell-based; details: Homo sapiens, NCI-H345
Text: (§1) We have determined cell cytotoxicity toward a specific drug, employing Cell Counting Kit-8 (Dojindo Molecular Technologies, Rockville, MD) as previously described (15).
(§2) The expression levels of DRP1 and DHODH in SCLC lines were compared with non-malignant BEAS 2B cells. Elevated levels of DRP1 and pDRP1 at Ser^616 were detected in all tested SCLC cells. Higher expression of DHODH was also observed in all seven SCLC cell lines (FIG. 1C). Previous studies have shown that Leflu and its active metabolite Teri regulate mitochondrial morphology (9,10,26). To find the effects of these two drugs on DRP1, AA docking (27) method was used to search for the best binding pocket for inhibitor binding. […] Leflu has a medium docking score of −5.6 kcal/mol. […] In vitro cytotoxicity effect of Teri and Leflu was tested in a panel of SCLC cell lines. Ten SCLC cell lines were treated with increasing concentrations of each drug for 72 h. […] In contrast, IC50 doses were much higher for Leflu. Upon oral administration of Leflu, over 80% of the drug is converted to Teri (28), indicating a potential reason for higher sensitivity to Teri. Two cell lines, SBC3 and SBC5, with IC50 2 μM and 30 μM, respectively, for Teri were used for additional experiments. […] The inhibitory effect was higher with Teri in both cell lines (FIG. 2A).

[3] = tested on: H524 cells; test: CCK-8 cytotoxicity assay, 72 h; assay type: cell-based; details: Homo sapiens, NCI-H524
Text: as §1, §2

[4] = tested on: H82 cells; test: CCK-8 cytotoxicity assay, 72 h; assay type: cell-based; details: Homo sapiens, NCI-H82
Text: as §1, §2

[5] = tested on: H69 cells; test: CCK-8 cytotoxicity assay, 72 h; assay type: cell-based; details: Homo sapiens, NCI-H69
Text: as §1, §2

[6] = tested on: DMS114 cells; test: CCK-8 cytotoxicity assay, 72 h; assay type: cell-based; details: Homo sapiens, DMS-114
Text: as §1, §2

[7] = tested on: DMS273 cells; test: CCK-8 cytotoxicity assay, 72 h; assay type: cell-based; details: Homo sapiens, DMS-273
Text: as §1, §2

[8] = tested on: H146 cells; test: CCK-8 cytotoxicity assay, 72 h; assay type: cell-based; details: Homo sapiens, NCI-H146
Text: as §1, §2

[9] = tested on: H526 cells; test: CCK-8 cytotoxicity assay, 72 h; assay type: cell-based; details: Homo sapiens, NCI-H526
Text: as §1, §2

[10] = tested on: H446 spheroids; test: Imaris mitochondrial morphology in spheroids; assay type: cell-based, human; details: Teri 1600 nM, Teri/Lur 800, 1600 nM/pM
Method: Spheroids were transferred to low cell attachment dishes, grown for two days, and treated with drug. After treatment, spheroid samples were run with Western blot assay. For spheroid mitochondria visualization, they were stained with 250 nM MitoTracker® Red CMXRos and Hoechst from ThermoFisher Scientific (Waltham, MA) for 2 h after drug treatment. Spheroids were washed, fixated with 4% PFA, transferred into 96-well flat glass-bottom black microplate (Cellvis, Mountain View, CA), and mounted in wells. […] Z-stacks were acquired in Airyscan Fast mode with a 2.0 μm interval and optical zoom of 2.0. […] In Airyscan Fast mode excitation was provided by 405 nm (1.0%) and 561 nm (1.0%) lasers with gain and detection wavelengths: DAPI […] (450 nm) and Red […] (579 nm). 2D images were acquired with a 20×/0.8 NA Plan-Apochromat objective and captured with PMT detectors. […] Roundness ratios were calculated from Surface generated Bounding Box 00 Length measurements. Object lengths less than 0.1 μm were excluded, and lengths greater than 1.26 μm were separately analyzed as clusters. […] The Cells module was used to detect and quantify mitochondria and nucleus area from cell monolayers. […] Imaris includes nuclei in cytoplasm measurements, so mitochondrial area is calculated by subtracting nucleus area from cell cytoplasm area. […]

In the case of `Cc1oncc1C(=O)Nc1ccc(C(F)(F)F)cc1` [Leflunomide, leflunomide], the “IC50 doses compared with Teri” value ([1]; ten SCLC cell lines) is reported as “much higher”, the IC50 [2] is reported as > 152 µM and the IC50 [3] is reported as 133 µM. The IC50 [4] was 103 µM, the IC50 [5] was > 152 µM and the IC50 [6] was > 152 µM. For the same compound, the IC50 [7] was > 152 µM, the IC50 [8] was 152 µM and the IC50 [9] was 48.3 µM.
In the case of `COc1ccc2[nH]c3c(c2c1)CCN[C@]31CS[C@@H]2c3c(OC(C)=O)c(C)c4c(c3[C@H](COC1=O)N1[C@@H]2[C@H]2c3c(cc(C)c(OC)c3O)C[C@@H]([C@@H]1O)N2C)OCO4` [Lurbinectedin, lurbinectedin], the “cell cytotoxicity at low doses” value ([1]; H69, H82, H446, SBC3, and SBC5 cells) is reported as “drastically increased cell cytotoxicity” and the “Percentages of round/fragmentated mitochondria” value [10] is reported as “significantly decreased”.
In the case of `C/C(O)=C(\C#N)C(=O)Nc1ccc(C(F)(F)F)cc1` [Teriflunomide, teriflunomide], the IC50 ([1]; Homo sapiens, five of ten SCLC cell lines, read-out: IC50 in the five sensitive cell lines) is reported as < 11 µM, the “Percentages of round/fragmentated mitochondria” value [10] is reported as “significantly decreased” and the IC50 [2] is reported as > 43.7 µM. It also gave an IC50 [3] of 10.8 µM, an IC50 [4] of 7.2 µM and an IC50 [5] of 17.1 µM. It also gave an IC50 [6] of 12.6 µM, an IC50 [7] of 43.7 µM and an IC50 [8] of 8.6 µM. The IC50 [9] was 7.6 µM.

Reference: US20250041313A1, “COMBINATION THERAPY FOR TREATMENT OF CANCER” (CITY OF HOPE, priority 2023, published 2025)
